In PubChem BioAssay (NCI):
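48-hour exposure; five concentrations; linearly interpolated endpoints. TGI: concentration producing complete growth inhibition.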

Experiments:
Assay in all cases: inhibition of tumour cell growth, NCI panel, 48 h
M14 melanoma = test system: M14 melanoma
NCI-H23 lung = test system: NCI-H23 lung
EKVX NSCLC = test system: EKVX NSCLC
OVCAR-3 ovarian = test system: OVCAR-3 ovarian
RXF 393 renal = test system: RXF 393 renal
COLO 205 colon = test system: COLO 205 colon
HOP-18 NSCLC = test system: HOP-18 NSCLC
CAKI-1 renal = test system: CAKI-1 renal
RPMI-8226 leukemia = test system: RPMI-8226 leukemia
NCI-H460 lung = test system: NCI-H460 lung
SN12C renal = test system: SN12C renal
SF-268 CNS = test system: SF-268 CNS
SF-295 CNS = test system: SF-295 CNS
SK-MEL-2 melanoma = test system: SK-MEL-2 melanoma
MOLT-4 leukemia = test system: MOLT-4 leukemia
DMS 114 small cell lung = test system: DMS 114 small cell lung
SK-OV-3 ovarian = test system: SK-OV-3 ovarian
UO-31 renal = test system: UO-31 renal
SNB-19 CNS = test system: SNB-19 CNS
SNB-75 CNS = test system: SNB-75 CNS
HCC-2998 colon = test system: HCC-2998 colon
OVCAR-5 ovarian = test system: OVCAR-5 ovarian
KM20L2 colon = test system: KM20L2 colon
LOX IMVI melanoma = test system: LOX IMVI melanoma
DLD-1 colon = test system: DLD-1 colon
HOP-62 NSCLC = test system: HOP-62 NSCLC
K-562 leukemia = test system: K-562 leukemia
HCT-15 colon = test system: HCT-15 colon
TK-10 renal = test system: TK-10 renal
SK-MEL-28 melanoma = test system: SK-MEL-28 melanoma
ACHN renal = test system: ACHN renal
A549 NSCLC = test system: A549 NSCLC
HL-60(TB) leukemia = test system: HL-60(TB) leukemia
MALME-3M melanoma = test system: MALME-3M melanoma
OVCAR-8 ovarian = test system: OVCAR-8 ovarian
SF-539 CNS = test system: SF-539 CNS
UACC-257 melanoma = test system: UACC-257 melanoma
KM12 colon = test system: KM12 colon
HT29 colon = test system: HT29 colon
OVCAR-4 ovarian = test system: OVCAR-4 ovarian
LXFL 529 NSCLC = test system: LXFL 529 NSCLC
M19-MEL melanoma = test system: M19-MEL melanoma
DMS 273 small cell lung = test system: DMS 273 small cell lung
IGROV1 ovarian = test system: IGROV1 ovarian
UACC-62 melanoma = test system: UACC-62 melanoma
RXF-631 renal = test system: RXF-631 renal
SK-MEL-5 melanoma = test system: SK-MEL-5 melanoma
786-0 renal = test system: 786-0 renal
HOP-92 NSCLC = test system: HOP-92 NSCLC
NCI-H522 lung = test system: NCI-H522 lung
SW-620 colon = test system: SW-620 colon
CCRF-CEM leukemia = test system: CCRF-CEM leukemia
U251 CNS = test system: U251 CNS
XF 498 CNS = test system: XF 498 CNS
A498 renal = test system: A498 renal
HCT-116 colon = test system: HCT-116 colon
NCI-H226 lung = test system: NCI-H226 lung
SNB-78 CNS = test system: SNB-78 CNS

O=C(O)c1ccccc1C1c2ccc(Cl)cc2Oc2cc(Cl)ccc21
TGI (M14 melanoma): > 100 µM
TGI (NCI-H23 lung): > 100 µM
TGI (EKVX NSCLC): > 100 µM
TGI (OVCAR-3 ovarian): > 100 µM
TGI (RXF 393 renal): > 100 µM
TGI (COLO 205 colon): > 100 µM
TGI (HOP-18 NSCLC): > 100 µM
TGI (CAKI-1 renal): > 100 µM
TGI (RPMI-8226 leukemia): > 100 µM
TGI (NCI-H460 lung): > 100 µM
TGI (SN12C renal): > 100 µM
TGI (SF-268 CNS): > 100 µM
TGI (SF-295 CNS): > 100 µM
TGI (SK-MEL-2 melanoma): > 100 µM
TGI (MOLT-4 leukemia): > 100 µM
TGI (DMS 114 small cell lung): > 100 µM
TGI (SK-OV-3 ovarian): > 100 µM
TGI (UO-31 renal): > 100 µM
TGI (SNB-19 CNS): > 100 µM
TGI (SNB-75 CNS): > 100 µM
TGI (HCC-2998 colon): > 100 µM
TGI (OVCAR-5 ovarian): > 100 µM
TGI (KM20L2 colon): > 100 µM
TGI (LOX IMVI melanoma): > 100 µM
TGI (DLD-1 colon): > 100 µM
TGI (HOP-62 NSCLC): > 100 µM
TGI (K-562 leukemia): > 100 µM
TGI (HCT-15 colon): > 100 µM
TGI (TK-10 renal): > 100 µM
TGI (SK-MEL-28 melanoma): > 100 µM
TGI (ACHN renal): > 100 µM
TGI (A549 NSCLC): > 100 µM
TGI (HL-60(TB) leukemia): > 100 µM
TGI (MALME-3M melanoma): > 100 µM
TGI (OVCAR-8 ovarian): > 100 µM
TGI (SF-539 CNS): > 100 µM
TGI (UACC-257 melanoma): > 100 µM
TGI (KM12 colon): > 100 µM
TGI (HT29 colon): > 100 µM
TGI (OVCAR-4 ovarian): > 100 µM
TGI (LXFL 529 NSCLC): > 100 µM
TGI (M19-MEL melanoma): > 100 µM
TGI (DMS 273 small cell lung): > 100 µM
TGI (IGROV1 ovarian): > 100 µM
TGI (UACC-62 melanoma): > 100 µM
TGI (RXF-631 renal): > 100 µM
TGI (SK-MEL-5 melanoma): > 100 µM
TGI (786-0 renal): > 100 µM
TGI (HOP-92 NSCLC): > 100 µM
TGI (NCI-H522 lung): > 100 µM
TGI (SW-620 colon): > 100 µM
TGI (CCRF-CEM leukemia): > 100 µM
TGI (U251 CNS): > 100 µM

Cn1c2c(c3ccccc31)CCN(CCCN1CCN(c3ccccc3)CC1)C2=O
TGI (M14 melanoma): 37 µM
TGI (NCI-H23 lung): 46.8 µM
TGI (EKVX NSCLC): 77.6 µM
TGI (XF 498 CNS): 27.8 µM
TGI (RXF 393 renal): 32.6 µM
TGI (COLO 205 colon): 37 µM
TGI (HOP-18 NSCLC): 32.9 µM
TGI (CAKI-1 renal): 30.8 µM
TGI (RPMI-8226 leukemia): 36.7 µM
TGI (SN12C renal): 46.7 µM
TGI (SF-268 CNS): > 100 µM
TGI (SF-295 CNS): 37.8 µM
TGI (MOLT-4 leukemia): 36.7 µM
TGI (DMS 114 small cell lung): 38.1 µM
TGI (SK-OV-3 ovarian): 37 µM
TGI (UO-31 renal): 30.3 µM
TGI (KM20L2 colon): 25.4 µM
TGI (LOX IMVI melanoma): 60 µM
TGI (DLD-1 colon): 46.6 µM
TGI (K-562 leukemia): 38.3 µM
TGI (HCT-15 colon): 50 µM
TGI (TK-10 renal): 35.4 µM
TGI (SK-MEL-28 melanoma): 36.7 µM
TGI (ACHN renal): 44.7 µM
TGI (A549 NSCLC): 61 µM
TGI (HL-60(TB) leukemia): 33.6 µM
TGI (OVCAR-8 ovarian): 59.6 µM
TGI (SF-539 CNS): 31.7 µM
TGI (A498 renal): 32.8 µM
TGI (HT29 colon): 26.7 µM
TGI (LXFL 529 NSCLC): 36.3 µM
TGI (M19-MEL melanoma): 38.2 µM
TGI (DMS 273 small cell lung): 52.4 µM
TGI (IGROV1 ovarian): 38 µM
TGI (UACC-62 melanoma): 37.4 µM
TGI (HCT-116 colon): 29.8 µM
TGI (SK-MEL-5 melanoma): 42.1 µM
TGI (786-0 renal): 39.1 µM
TGI (HOP-92 NSCLC): 31.7 µM
TGI (NCI-H522 lung): 30.9 µM
TGI (SW-620 colon): 55.7 µM
TGI (CCRF-CEM leukemia): 65.7 µM
TGI (U251 CNS): 30.2 µM

COc1cc([C@@H]2c3cc4c(cc3[C@@H](NC(=O)c3ccc(OC(C)=O)cc3)C3COC(=O)[C@@H]32)OCO4)cc(OC)c1O (stereo partly drawn)
TGI (M14 melanoma): 9.22 µM
TGI (NCI-H23 lung): 3.31 µM
TGI (EKVX NSCLC): 21.2 µM
TGI (XF 498 CNS): 6.96 µM
TGI (OVCAR-3 ovarian): 22.3 µM
TGI (RXF 393 renal): 36.3 µM
TGI (COLO 205 colon): 35.7 µM
TGI (HOP-18 NSCLC): > 100 µM
TGI (CAKI-1 renal): 15.8 µM
TGI (RPMI-8226 leukemia): 13.2 µM
TGI (SN12C renal): 4.05 µM
TGI (SF-268 CNS): > 100 µM
TGI (SF-295 CNS): 50.9 µM
TGI (SK-MEL-2 melanoma): 16.6 µM
TGI (MOLT-4 leukemia): 2.93 µM
TGI (DMS 114 small cell lung): 5.38 µM
TGI (SK-OV-3 ovarian): 7.88 µM
TGI (UO-31 renal): 30.6 µM
TGI (SNB-19 CNS): > 100 µM
TGI (SNB-75 CNS): 5.86 µM
TGI (HCC-2998 colon): 14.7 µM
TGI (OVCAR-5 ovarian): 22.4 µM
TGI (KM20L2 colon): 12.7 µM
TGI (LOX IMVI melanoma): 10.1 µM
TGI (DLD-1 colon): 26 µM
TGI (HOP-62 NSCLC): 3.12 µM
TGI (K-562 leukemia): 47.2 µM
TGI (HCT-15 colon): 24.4 µM
TGI (TK-10 renal): 30.8 µM
TGI (SK-MEL-28 melanoma): 23.5 µM
TGI (NCI-H226 lung): 4.46 µM
TGI (ACHN renal): 3.16 µM
TGI (A549 NSCLC): 10.6 µM
TGI (HL-60(TB) leukemia): 0.688 µM
TGI (MALME-3M melanoma): 11.1 µM
TGI (OVCAR-8 ovarian): 18.5 µM
TGI (SF-539 CNS): 3.14 µM
TGI (A498 renal): 8.75 µM
TGI (UACC-257 melanoma): 31.9 µM
TGI (KM12 colon): 11.9 µM
TGI (HT29 colon): 29.5 µM
TGI (OVCAR-4 ovarian): > 100 µM
TGI (LXFL 529 NSCLC): 44.2 µM
TGI (M19-MEL melanoma): 40.1 µM
TGI (DMS 273 small cell lung): 12.4 µM
TGI (IGROV1 ovarian): 7.77 µM
TGI (UACC-62 melanoma): 3.14 µM
TGI (HCT-116 colon): 15.3 µM
TGI (SNB-78 CNS): > 100 µM
TGI (RXF-631 renal): 17.3 µM
TGI (SK-MEL-5 melanoma): 13.2 µM
TGI (786-0 renal): 3.47 µM
TGI (HOP-92 NSCLC): 7.05 µM
TGI (NCI-H522 lung): 4.37 µM
TGI (SW-620 colon): 15 µM
TGI (CCRF-CEM leukemia): > 100 µM
TGI (U251 CNS): 2.75 µM
